ChEMBL document CHEMBL5726263, “Pyrazolopyrimidinyl inhibitors of ubiquitin-activating enzyme” (2017)
pIC50: −log10 of the molar value.

Biological target: Ubiquitin-conjugating enzyme E2 E1 (Homo sapiens, UniProt P51965)
Assay: HTRF Assay : The UAE enzymatic reaction totals 50 μL and contains 50 mmol HEPES (pH 7.5), 0.05% BSA, 2.5 mM MgCl2, 0.1 uM ATP, 8 nM GST-Ubc-2, 35 nM flag-ubiquitin, 1 nM recombinant human UAE or mouse UAE. Compounds for this hUAE 1050 assay are tested at 10 point 3-fold dilution. The top concentration for this assay is 1 μM. Each compound is ordered in duplicate on the same plate.

Ubiquitin-conjugating enzyme E2 E1, sequence (P51965 whole entry): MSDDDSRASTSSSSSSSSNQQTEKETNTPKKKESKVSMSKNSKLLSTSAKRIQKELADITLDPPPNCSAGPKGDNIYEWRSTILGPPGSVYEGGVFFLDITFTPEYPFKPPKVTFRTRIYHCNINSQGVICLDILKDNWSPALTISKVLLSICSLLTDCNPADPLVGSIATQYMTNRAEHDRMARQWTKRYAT

pIC50: > 8.00
SMILES: NS(=O)(=O)OC[C@H]1C[C@@H](Nc2ccnc3cc(-c4cccc5ccccc45)nn23)[C@H](O)[C@@H]1O (racemic)
